This is an account of results in patent US8410310B2, “Trypsin-like serine protease inhibitors, and their preparation and use” (The Medicines Company (Leipzig) GmbH, priority 2006, dated 2013).

For data set [1], the target named is T1, Human factor XIIa (alpha) (Homo sapiens, UniProt P00748).
T1 construct: Human factor Xa, factor XIa, factor XIIa, thrombin, and plasma kallikrein were purchased; purchased Enzyme Research Laboratories (via Haemochrom, Essen)
T1 sequence (P00748 373-615 limits assumed): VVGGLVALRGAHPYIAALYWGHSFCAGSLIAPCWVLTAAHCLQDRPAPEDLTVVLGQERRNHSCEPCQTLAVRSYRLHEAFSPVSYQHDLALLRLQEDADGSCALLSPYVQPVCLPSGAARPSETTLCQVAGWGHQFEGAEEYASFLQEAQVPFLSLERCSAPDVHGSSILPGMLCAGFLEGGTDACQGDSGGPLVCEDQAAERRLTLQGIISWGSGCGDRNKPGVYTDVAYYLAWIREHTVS
T1 sequence (P00748 20-372 partner limits assumed): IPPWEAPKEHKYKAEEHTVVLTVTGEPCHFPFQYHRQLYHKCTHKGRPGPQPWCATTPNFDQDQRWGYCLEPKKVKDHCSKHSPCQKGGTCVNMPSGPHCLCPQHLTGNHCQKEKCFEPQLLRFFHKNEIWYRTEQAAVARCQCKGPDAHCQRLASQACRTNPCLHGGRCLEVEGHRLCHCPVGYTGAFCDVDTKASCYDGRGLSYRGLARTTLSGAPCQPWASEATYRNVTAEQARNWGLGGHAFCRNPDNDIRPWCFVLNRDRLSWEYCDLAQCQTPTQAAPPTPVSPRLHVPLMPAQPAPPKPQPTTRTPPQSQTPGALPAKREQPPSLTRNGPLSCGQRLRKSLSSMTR
The data set is described as follows: Inhibition constants against purified human serine proteases: FXIIa. Type of data set: biochemical. As to conditions: 50 mM Tris-HCl pH 8.0, 154 mM NaCl, Chromozym XII. An excerpt:
(§1) Aprotinin and tranexamic acid were purchased from SIGMA (Schnelldorf, Germany). Human factor Xa, factor XIa, factor XIIa, thrombin, and plasma kallikrein were purchased from Enzyme Research Laboratories, and human plasmin from Chromogenix (both via Haemochrom, Essen, Germany). Various synthetic peptide chromogenic substrates used for determination of inhibition constants were obtained from Pentapharm (Basel, Switzerland), Roche (Mannheim, Germany), and Chromogenix: Chromozyme PL for plasmin, S2302 for plasma kallikrein, Pefachrome FXa for factor Xa, Chromozym XII for FXIIa, Pefachrom tPA for thrombin, and Pefachrome PCa for factor XIa. […]
(§2) Inhibition of purified human serine proteases by Compound No. 3 and aprotinin was studied using the established methods described herein in Example 3 (i.e., Stürzebecher et al., 1997). […] Steady-state velocities of substrate conversion were obtained from progress curves generated by continuous monitoring of the absorbance at 405 nm with a microplate reader (Multiskan Ascent, Thermo Electron Corporation, Dreieich, Germany). […] Inhibition constants (Ki) were calculated from non-linear fits of individual data sets to the Michaelis-Menten equation for competitive inhibitors using an enzyme kinetic analysis software (SIGMA Plot® 9.0 Enzyme Kinetics Module, SSI, San Jose, Calif.). […]

Data set [2] deals with T2, plasma kallikrein (Homo sapiens, UniProt P03952). The experiment in a line: Determination of inhibition constants for PK. It is filed as biochemical. Set-up: purchased Enzyme Research Lab. / Enzyme Research Laboratories. As to conditions: 25° C., substrate S2302, pH 8.0; read-out: PK [Ki]. The gist of the method: (§3)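 Chromogenic assays measured absorbance at 405 nm: zero-order reactions were stopped with acetic acid after 20 min, and pseudo-first-order rates were recorded kinetically at equilibrium. Ki was obtained by Dixon linear regression or by fitting to the competitive-inhibition rate equation, averaging at least two determinations.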

The next data set deals with Thrombin (Homo sapiens, UniProt P00734). The data set is described as follows: Determination of inhibition constants for thrombin. It is filed as biochemical. The gist of the method: as §3
The target in data set [3] is T3, plasmin (Homo sapiens, UniProt P00747). The data set is described as follows: Determination of inhibition constants for plasmin. Set-up: purchased Calbiochem. As to conditions: 25° C., substrate Chromozym PL, pH 8.0; read-out: Plasmin [Ki]. Type of data set: biochemical. The gist of the method: as §3
Data set [4] in a line: Terminal half-life in rats. As to conditions: rat, in vivo.
Data set [5] deals with T3, plasmin. The data set is described as follows: Inhibition constants against purified human serine proteases: plasmin. It is filed as biochemical. Set-up: purchased Calbiochem. As to conditions: 50 mM Tris-HCl pH 8.0, 154 mM NaCl, Chromozyme PL.
Excerpt: as §1, §2

For the next data set, the target named is Xa (Homo sapiens, UniProt P00742). The data set is described as follows: Determination of inhibition constants for Xa. Type of data set: biochemical. In short, it runs like this:
as §3

The target of another data set is T4, Human factor XIa (Homo sapiens, UniProt P03951).
T4 construct: Human factor Xa, factor XIa, factor XIIa, thrombin, and plasma kallikrein were purchased; purchased Enzyme Research Laboratories (via Haemochrom, Essen)
The experiment in a line: Inhibition constants against purified human serine proteases: FXIa. Type of data set: biochemical.
Excerpt: as §1, §2

For data set [6], the target named is T2, plasma kallikrein. The experiment in a line: Inhibition constants against purified human serine proteases: plasma kallikrein. Type of data set: biochemical. Set-up: purchased Enzyme Research Lab. / Enzyme Research Laboratories.
Excerpt: as §1, §2

The conditions of data set [7]: cited from earlier work.
The next data set addresses trypsin. As to conditions: background; cited from earlier work.

Where “and” joins values, the source holds several entries; their conditions need not be identical. Identical values can stand only once. Like-named read-outs stand apart in the source and are kept apart here.

T3 sequence (P00747 581-810 limits assumed): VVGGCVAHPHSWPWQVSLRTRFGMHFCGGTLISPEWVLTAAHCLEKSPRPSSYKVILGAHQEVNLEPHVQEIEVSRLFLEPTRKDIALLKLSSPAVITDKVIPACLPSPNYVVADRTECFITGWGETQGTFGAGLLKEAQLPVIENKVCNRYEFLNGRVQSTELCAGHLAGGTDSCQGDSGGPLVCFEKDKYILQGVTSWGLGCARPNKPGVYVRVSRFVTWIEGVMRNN
T3 sequence (P00747 97-580 partner limits assumed): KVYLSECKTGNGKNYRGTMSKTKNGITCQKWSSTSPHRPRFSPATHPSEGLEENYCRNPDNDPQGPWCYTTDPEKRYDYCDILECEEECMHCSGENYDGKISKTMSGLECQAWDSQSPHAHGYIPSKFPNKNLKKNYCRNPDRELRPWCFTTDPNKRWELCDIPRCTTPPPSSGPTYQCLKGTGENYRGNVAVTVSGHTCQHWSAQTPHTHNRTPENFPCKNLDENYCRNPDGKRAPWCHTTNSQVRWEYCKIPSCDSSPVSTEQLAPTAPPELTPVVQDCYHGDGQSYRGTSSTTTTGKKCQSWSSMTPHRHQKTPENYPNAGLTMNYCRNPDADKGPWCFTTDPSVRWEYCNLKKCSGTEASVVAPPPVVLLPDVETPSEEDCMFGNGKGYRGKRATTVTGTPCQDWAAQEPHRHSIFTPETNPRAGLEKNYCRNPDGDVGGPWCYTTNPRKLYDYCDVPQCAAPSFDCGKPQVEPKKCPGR
T2 sequence (P03952 391-638 limits assumed): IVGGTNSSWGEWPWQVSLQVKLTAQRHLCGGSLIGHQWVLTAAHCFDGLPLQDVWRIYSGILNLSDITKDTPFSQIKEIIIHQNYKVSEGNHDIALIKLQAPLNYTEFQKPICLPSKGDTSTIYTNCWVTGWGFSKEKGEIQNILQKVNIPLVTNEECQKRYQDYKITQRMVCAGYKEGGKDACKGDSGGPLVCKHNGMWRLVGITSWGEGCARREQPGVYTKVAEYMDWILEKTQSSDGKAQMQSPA
T2 sequence (P03952 20-390 partner limits assumed): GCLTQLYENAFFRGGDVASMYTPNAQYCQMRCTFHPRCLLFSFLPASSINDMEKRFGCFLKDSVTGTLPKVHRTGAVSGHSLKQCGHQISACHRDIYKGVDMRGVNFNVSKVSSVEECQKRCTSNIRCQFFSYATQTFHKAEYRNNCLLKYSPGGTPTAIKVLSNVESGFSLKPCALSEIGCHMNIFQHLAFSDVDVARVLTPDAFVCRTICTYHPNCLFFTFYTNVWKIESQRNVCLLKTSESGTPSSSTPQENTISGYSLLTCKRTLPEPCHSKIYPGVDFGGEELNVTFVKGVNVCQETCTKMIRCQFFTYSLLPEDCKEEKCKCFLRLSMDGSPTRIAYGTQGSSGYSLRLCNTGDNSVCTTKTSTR
T4 sequence (P03951 388-625 limits assumed): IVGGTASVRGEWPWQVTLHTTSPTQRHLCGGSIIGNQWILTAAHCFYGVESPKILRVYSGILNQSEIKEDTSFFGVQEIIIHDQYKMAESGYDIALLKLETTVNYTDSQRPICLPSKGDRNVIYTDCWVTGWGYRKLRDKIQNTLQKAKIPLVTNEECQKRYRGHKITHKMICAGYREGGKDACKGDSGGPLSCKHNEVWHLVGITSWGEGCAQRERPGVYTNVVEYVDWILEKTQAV
T4 sequence (P03951 19-387 partner limits assumed): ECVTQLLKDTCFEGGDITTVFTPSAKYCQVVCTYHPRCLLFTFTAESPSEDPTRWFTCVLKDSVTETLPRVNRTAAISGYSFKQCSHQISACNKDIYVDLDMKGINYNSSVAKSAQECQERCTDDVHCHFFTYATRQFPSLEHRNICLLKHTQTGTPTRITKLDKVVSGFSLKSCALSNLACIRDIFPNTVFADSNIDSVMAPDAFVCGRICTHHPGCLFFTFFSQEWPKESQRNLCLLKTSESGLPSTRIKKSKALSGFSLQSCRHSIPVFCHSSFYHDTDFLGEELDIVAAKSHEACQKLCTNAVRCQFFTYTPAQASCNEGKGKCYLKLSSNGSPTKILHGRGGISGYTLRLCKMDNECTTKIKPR
Sequence of Xa (P00742 235-488 limits assumed): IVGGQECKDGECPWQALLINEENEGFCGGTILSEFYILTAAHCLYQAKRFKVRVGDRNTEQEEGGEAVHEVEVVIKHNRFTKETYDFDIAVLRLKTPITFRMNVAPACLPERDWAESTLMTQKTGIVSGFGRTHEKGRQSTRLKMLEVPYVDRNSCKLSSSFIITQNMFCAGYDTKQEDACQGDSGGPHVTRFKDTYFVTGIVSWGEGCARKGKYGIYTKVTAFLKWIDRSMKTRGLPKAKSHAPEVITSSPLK
Sequence of Xa (P00742 41-179 limits assumed): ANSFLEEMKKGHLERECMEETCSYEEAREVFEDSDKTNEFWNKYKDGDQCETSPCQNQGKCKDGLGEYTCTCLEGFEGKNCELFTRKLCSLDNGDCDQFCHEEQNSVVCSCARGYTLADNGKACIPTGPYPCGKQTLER

`N=C(N)c1ccc(CNC(=O)[C@H](Cc2cccc(CN)c2)NC(=O)[C@@H](CCCc2ccccc2)NS(=O)(=O)Cc2cccc(C(=O)O)c2)cc1` [compound 3, 3-HOOC-Bzls-d-Ppg-Phe(3-Ame)-4-Amba×2 acetate]: the inhibition constant Ki is 5200 ± 400 nM in [1]; less than 10 nM at plasma kallikrein [2]; more than 1000 nM at Thrombin; less than 10 nM at plasmin [3]; 2.3 nM and 2.2 nM at plasmin [5]; less than 100 nM on Xa. Besides, the inhibition constant Ki came out at 18 ± 1 nM on Human factor XIa (50 mM Tris-HCl pH 8.0, 154 mM NaCl, Pefachrome PCa) and 0.019 ± 0.003 nM at plasma kallikrein [6] (50 mM Tris-HCl pH 8.0, 154 mM NaCl, S2302). The compound also showed a half-life in [4] of 20 min. The “stronger inhibition of FXIa than aprotinin” value on Human factor XIa (versus aprotinin) is 100 fold. Besides, the “stronger inhibition of plasma kallikrein than aprotinin” value on plasma kallikrein [6] (versus aprotinin) is 2000 fold.

Regarding aprotinin, the “risk of myocardial infarction and apoplectic stroke” value in [7] (by comparison with the control groups) is “increased”. The “number of cases of kidney damage, making dialysis necessary” value in data set [7] (comparison with ε-aminocaproic acid or tranexamic acid (Mangano et al., 2006)) is on record as “doubling”. Moreover, the “risk of an anaphylactic shock” value is reported as less than 0.1% in [7] (first administration) and 4-5% in [7] (repeated administration within 200 days). Besides, the Ki on trypsin is 0.1 nM.
